PMC6743422, “Preclinical disposition of MGS0274 besylate, a prodrug of a potent group II metabotropic glutamate receptor agonist MGS0008 for the treatment of schizophrenia” (Pharmacology Research & Perspectives, 2019)
pIC50: −log10 of the molar value. Where two headings read alike, the source gives them in different places. Marks after values point to notes of the source that are not given here.

Experiments:
CYP1A2 = biological target: T1, CYP1A2 (Homo sapiens, UniProt P05177); assay: CYP inhibition in human liver microsomes, CYP1A2; assay type: in vitro ADME; conditions: human liver microsomes 0.1 mg/mL; probe Phenacetin, metabolite Acetaminophen
T1 construct: using probe substrates for each CYP isoform and human liver microsomes; from tissue; host or cells: human liver microsomes
T1 sequence (P05177 whole entry, canonical isoform): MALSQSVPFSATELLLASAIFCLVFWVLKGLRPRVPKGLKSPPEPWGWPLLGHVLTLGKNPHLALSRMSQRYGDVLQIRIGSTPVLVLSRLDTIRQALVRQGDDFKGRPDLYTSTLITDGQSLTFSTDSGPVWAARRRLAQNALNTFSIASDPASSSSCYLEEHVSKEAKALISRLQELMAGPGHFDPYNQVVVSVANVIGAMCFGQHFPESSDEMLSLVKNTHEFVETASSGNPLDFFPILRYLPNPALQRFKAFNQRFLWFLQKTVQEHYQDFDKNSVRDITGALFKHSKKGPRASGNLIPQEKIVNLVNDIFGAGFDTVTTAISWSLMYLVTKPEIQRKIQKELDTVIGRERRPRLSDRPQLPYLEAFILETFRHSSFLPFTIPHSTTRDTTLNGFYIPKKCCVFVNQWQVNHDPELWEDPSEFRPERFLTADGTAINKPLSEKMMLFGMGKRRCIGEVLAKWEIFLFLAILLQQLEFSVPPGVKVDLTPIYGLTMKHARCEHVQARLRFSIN
Protocol: The inhibition potential of MGS0008 (0.3‐100 µmol/L) and MGS0274 besylate (0.03‐10 µmol/L) on the activity of human cytochrome P450 (CYP) isoforms (CYP1A2, 2B6, 2C8, 2C9, 2C19, 2D6, and 3A) was investigated using probe substrates for each CYP isoform and human liver microsomes, of which the final protein concentration was set at 0.1 mg/mL (see Table S2). The assay was started by spiking the reaction mixture, which had been pre‐incubated at 37°C for 5 minutes, with NADP^+. After incubation for 5 to 10 minutes, the reaction was terminated by adding acetonitrile containing an internal standard for each probe substrate, and the resultant mixture was centrifuged. Aliquots of the supernatant were subjected to bioanalysis using LC‐MS/MS (see Table S1‐D).
The final protein concentration in the reaction mixture was set at 0.1 mg/mL. The values in parentheses represent the final concentrations of compounds added in each reaction mixture. […]

CYP2B6 = biological target: T2, CYP2B6 (Homo sapiens, UniProt P20813); assay: CYP inhibition in human liver microsomes, CYP2B6; assay type: in vitro ADME; conditions: human liver microsomes 0.1 mg/mL; probe Bupropion, metabolite Hydroxybupropion
T2 construct: using probe substrates for each CYP isoform and human liver microsomes; from tissue; host or cells: human liver microsomes
T2 sequence (P20813 whole entry, canonical isoform): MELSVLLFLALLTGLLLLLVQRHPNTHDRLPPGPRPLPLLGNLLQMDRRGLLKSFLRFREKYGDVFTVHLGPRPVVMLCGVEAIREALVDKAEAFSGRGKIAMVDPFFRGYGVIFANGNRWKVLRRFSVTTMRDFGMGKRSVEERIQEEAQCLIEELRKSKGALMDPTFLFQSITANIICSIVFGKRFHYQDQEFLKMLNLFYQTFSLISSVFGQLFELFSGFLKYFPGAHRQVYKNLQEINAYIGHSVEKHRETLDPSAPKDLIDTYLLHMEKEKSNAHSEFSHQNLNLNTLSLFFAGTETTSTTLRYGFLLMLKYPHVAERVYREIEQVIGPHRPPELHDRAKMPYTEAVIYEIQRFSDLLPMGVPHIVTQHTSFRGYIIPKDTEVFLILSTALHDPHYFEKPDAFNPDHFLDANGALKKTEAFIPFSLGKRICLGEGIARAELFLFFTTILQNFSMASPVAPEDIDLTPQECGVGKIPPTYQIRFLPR

CYP2C8 = biological target: T3, CYP2C8 (Homo sapiens, UniProt P10632); assay: CYP inhibition in human liver microsomes, CYP2C8; assay type: in vitro ADME; conditions: human liver microsomes 0.1 mg/mL; probe Amodiaquine, metabolite N-desethylamodiaquine
T3 construct: using probe substrates for each CYP isoform and human liver microsomes; from tissue; host or cells: human liver microsomes
T3 sequence (P10632 whole entry, canonical isoform): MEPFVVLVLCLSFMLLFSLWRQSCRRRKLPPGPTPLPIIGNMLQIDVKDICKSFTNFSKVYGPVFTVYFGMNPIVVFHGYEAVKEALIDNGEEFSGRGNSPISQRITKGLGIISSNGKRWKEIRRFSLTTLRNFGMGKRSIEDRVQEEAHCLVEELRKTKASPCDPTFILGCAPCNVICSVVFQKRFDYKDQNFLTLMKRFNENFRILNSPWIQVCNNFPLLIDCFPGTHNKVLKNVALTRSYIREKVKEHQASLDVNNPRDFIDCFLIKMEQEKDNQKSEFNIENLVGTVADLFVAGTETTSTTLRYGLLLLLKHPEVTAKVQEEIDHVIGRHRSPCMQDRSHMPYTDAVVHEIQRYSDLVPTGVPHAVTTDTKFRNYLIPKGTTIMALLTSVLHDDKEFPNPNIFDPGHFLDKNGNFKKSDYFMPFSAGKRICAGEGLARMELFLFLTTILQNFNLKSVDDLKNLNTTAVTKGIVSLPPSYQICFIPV

CYP2C9 = biological target: T4, CYP2C9 (Homo sapiens, UniProt P11712); assay: CYP inhibition in human liver microsomes, CYP2C9; assay type: in vitro ADME; conditions: human liver microsomes 0.1 mg/mL; probe Diclofenac, metabolite 4'-Hydroxydiclofenac
T4 construct: using probe substrates for each CYP isoform and human liver microsomes; from tissue; host or cells: human liver microsomes
T4 sequence (P11712 whole entry, canonical isoform): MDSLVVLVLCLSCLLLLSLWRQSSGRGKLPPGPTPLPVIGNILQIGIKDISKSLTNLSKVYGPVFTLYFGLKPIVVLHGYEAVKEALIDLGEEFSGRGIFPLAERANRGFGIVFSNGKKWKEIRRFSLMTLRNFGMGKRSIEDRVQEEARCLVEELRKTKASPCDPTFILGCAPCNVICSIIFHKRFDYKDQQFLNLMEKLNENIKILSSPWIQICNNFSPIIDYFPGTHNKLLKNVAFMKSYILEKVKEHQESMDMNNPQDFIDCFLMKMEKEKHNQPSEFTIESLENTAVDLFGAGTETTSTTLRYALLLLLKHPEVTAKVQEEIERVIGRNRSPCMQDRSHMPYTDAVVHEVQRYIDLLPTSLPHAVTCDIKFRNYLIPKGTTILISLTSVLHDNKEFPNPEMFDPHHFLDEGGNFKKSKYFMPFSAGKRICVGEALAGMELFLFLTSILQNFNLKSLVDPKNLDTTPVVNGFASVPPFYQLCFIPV

CYP2C19 = biological target: T5, CYP2C19 (Homo sapiens, UniProt P33261); assay: CYP inhibition in human liver microsomes, CYP2C19; assay type: in vitro ADME; conditions: human liver microsomes 0.1 mg/mL; probe (S)-Mephenytoin, metabolite 4'-Hydroxymephenytoin
T5 construct: using probe substrates for each CYP isoform and human liver microsomes; from tissue; host or cells: human liver microsomes
T5 sequence (P33261 whole entry, canonical isoform): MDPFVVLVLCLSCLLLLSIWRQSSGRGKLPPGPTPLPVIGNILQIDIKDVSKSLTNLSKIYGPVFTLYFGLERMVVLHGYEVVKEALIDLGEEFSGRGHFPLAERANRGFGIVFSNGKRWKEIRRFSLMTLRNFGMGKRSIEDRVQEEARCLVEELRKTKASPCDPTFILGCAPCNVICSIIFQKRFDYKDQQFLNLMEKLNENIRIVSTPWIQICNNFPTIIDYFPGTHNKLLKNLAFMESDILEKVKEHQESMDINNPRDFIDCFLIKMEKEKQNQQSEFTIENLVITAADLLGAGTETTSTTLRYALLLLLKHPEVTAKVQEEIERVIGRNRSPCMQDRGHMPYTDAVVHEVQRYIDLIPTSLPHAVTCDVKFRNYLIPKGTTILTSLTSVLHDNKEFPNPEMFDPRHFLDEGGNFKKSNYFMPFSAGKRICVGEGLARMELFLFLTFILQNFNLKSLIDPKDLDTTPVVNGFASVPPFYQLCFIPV

CYP2D6 = biological target: T6, CYP2D6 (Homo sapiens, UniProt P10635); assay: CYP inhibition in human liver microsomes, CYP2D6; assay type: in vitro ADME; conditions: human liver microsomes 0.1 mg/mL; probe (±)-Bufuralol, metabolite 1'-Hydroxybufuralol
T6 construct: using probe substrates for each CYP isoform and human liver microsomes; from tissue; host or cells: human liver microsomes
T6 sequence (P10635 whole entry, canonical isoform): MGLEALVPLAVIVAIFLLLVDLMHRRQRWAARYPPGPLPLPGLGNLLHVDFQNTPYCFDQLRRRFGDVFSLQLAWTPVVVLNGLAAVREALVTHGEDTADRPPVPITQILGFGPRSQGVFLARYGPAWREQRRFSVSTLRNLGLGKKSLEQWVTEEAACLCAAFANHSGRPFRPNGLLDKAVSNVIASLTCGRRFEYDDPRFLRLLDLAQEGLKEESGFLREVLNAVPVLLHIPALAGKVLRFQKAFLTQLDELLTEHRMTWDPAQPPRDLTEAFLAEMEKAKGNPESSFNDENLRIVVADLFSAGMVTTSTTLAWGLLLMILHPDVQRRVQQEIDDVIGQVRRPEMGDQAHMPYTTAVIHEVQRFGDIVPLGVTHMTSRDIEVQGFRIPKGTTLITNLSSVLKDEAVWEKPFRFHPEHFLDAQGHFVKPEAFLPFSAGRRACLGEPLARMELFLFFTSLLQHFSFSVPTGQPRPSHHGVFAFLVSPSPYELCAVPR

[1] = test system: CYP1A2, 2B6, 2C8, 2C9, 2C19, 2D6 and 3A; assay: CYP inhibition in human liver microsomes, all 7 isoforms together; assay type: in vitro ADME; conditions: human, all the CYP isoforms tested, read-out: percent inhibition
[2] = test system: human cytochrome P450 (CYP) isoforms (CYP1A2, 2B6, 2C8, 2C9, 2C19, 2D6, and 3A); assay: as above; assay type: in vitro ADME; conditions: MGS0008 0.3-100 µmol/L, MGS0274 besylate 0.03-10 µmol/L
CYP1A2 mRNA = assay: CYP induction in primary cultured cryopreserved human hepatocytes, CYP1A2 mRNA; assay type: in vitro ADME; conditions: three consecutive 24-hour treatments
Protocol: (§1) The primary cultured cryopreserved human hepatocytes were plated in a collagen‐coated 96‐well plate (Becton Dickinson, Franklin Lakes, NJ) with Williams’ Medium E (Invitrogen, Carlsbad, CA) containing Geltrex^TM (Invitrogen) and Maintenance Supplements (Invitrogen) and maintained in humidified air‐5% CO2 at 37°C for 3 days. Then, the cells were cultured for three consecutive 24‐hour treatments with MGS0008 (3‐30 µmol/L), with MGS0274 besylate (3‐30 µmol/L), or with positive controls (omeprazole for CYP1A2 at 50 µmol/L, phenobarbital for CYP2B6 at 1000 µmol/L, or rifampicin for CYP3A4 at 10 µmol/L). The mRNA expression levels of CYP1A2, 2B6, and 3A4 were measured using the real‐time polymerase chain reaction (RT‐PCR) method (7500 Fast RT‐PCR system; Applied Biosystems, Foster City, CA) with TaqMan® Fast Universal PCR Master Mix (probe ID: Hs00167927_m1 for CYP1A2, Hs04183483_g1 for CYP2B6, and Hs00604506_ml for CYP3A4; Applied Biosystems). The fold change in the mRNA expression was calculated using the 2^‐ΔΔCT method.22

CYP2B6 mRNA = assay: CYP induction in primary cultured cryopreserved human hepatocytes, CYP2B6 mRNA; conditions: three consecutive 24-hour treatments
Protocol: as §1

CYP3A4 mRNA = assay type: in vitro ADME, human; conditions: three consecutive 24-hour treatments
Protocol: as §1

[3] = test system: mRNA expression of CYP1A2, 2B6, and 3A4; assay: CYP induction in human hepatocytes, CYP1A2, 2B6 and 3A4 together; assay type: in vitro ADME; conditions: 3-30 µmol/L; three lots of human hepatocytes
Protocol: as §1

[4] = test system: cultured human hepatocytes; assay: Toxicity to the cultured human hepatocytes; assay type: cell-based; conditions: at the concentrations tested (3-30 μM)

SMILES | pIC50 (CYP1A2) | pIC50 (CYP2B6) | pIC50 (CYP2C8) | pIC50 (CYP2C9) | pIC50 (CYP2C19) | pIC50 (CYP2D6) | inhibitory potential on the CYP isoforms [2] | Fold change of mRNA expression level CYP1A2 (CYP1A2 mRNA; hepatocyte lot Hu1487, 3 μM) [fold] | Fold change of mRNA expression level CYP1A2 (CYP1A2 mRNA; hepatocyte lot Hu1487, 10 μM) [fold] | Fold change of mRNA expression level CYP1A2 (CYP1A2 mRNA; hepatocyte lot Hu1487, 30 μM) [fold] | Fold change of mRNA expression level CYP1A2 (CYP1A2 mRNA; hepatocyte lot Hu8114, 3 μM) [fold] | Fold change of mRNA expression level CYP1A2 (CYP1A2 mRNA; hepatocyte lot Hu8114, 10 μM) [fold] | Fold change of mRNA expression level CYP1A2 (CYP1A2 mRNA; hepatocyte lot Hu8114, 30 μM) [fold] | Fold change of mRNA expression level CYP1A2 (CYP1A2 mRNA; hepatocyte lot Hu8123, 3 μM) [fold] | Fold change of mRNA expression level CYP1A2 (CYP1A2 mRNA; hepatocyte lot Hu8123, 10 μM) | Fold change of mRNA expression level CYP1A2 (CYP1A2 mRNA; hepatocyte lot Hu8123, 30 μM) [fold] | Fold change of mRNA expression level CYP2B6 (CYP2B6 mRNA; hepatocyte lot Hu1487, 3 μM) [fold] | Fold change of mRNA expression level CYP2B6 (CYP2B6 mRNA; hepatocyte lot Hu1487, 10 μM) [fold] | Fold change of mRNA expression level CYP2B6 (CYP2B6 mRNA; hepatocyte lot Hu1487, 30 μM) [fold] | Fold change of mRNA expression level CYP2B6 (CYP2B6 mRNA; hepatocyte lot Hu8114, 3 μM) [fold] | further results
N[C@]1(C(=O)O)[C@H]2[C@@H](C[C@@H]1F)[C@@H]2C(=O)O [MGS0008, (1S,2S,3S,5R,6S)‐2‐amino‐3‐fluorobicyclo[3.1.0]hexane‐2,6‐dicarboxylic acid] | < 4.00 | < 4.00 | < 4.00 | < 4.00 | < 4.00 | < 4.00 | no inhibitory potential | 0.8 | 0.7 | 1.0 | 1.1 | 1.0 | 1.1 | 0.9 | 1.1^b fold | 0.9 | 0.9 | 0.7 | 0.9 | 0.8 | inhibition at 100 µM ([1]; at 100 μM): < 50%; Fold change of mRNA expression level CYP2B6 (CYP2B6 mRNA; hepatocyte lot Hu8114, 10 μM): 0.8 fold; Fold change of mRNA expression level CYP2B6 (CYP2B6 mRNA; hepatocyte lot Hu8114, 30 μM): 1.0 fold; Fold change of mRNA expression level CYP2B6 (CYP2B6 mRNA; hepatocyte lot Hu8123, 3 μM): 1.2 fold; Fold change of mRNA expression level CYP2B6 (CYP2B6 mRNA; hepatocyte lot Hu8123, 10 μM): 1.2^b fold; Fold change of mRNA expression level CYP2B6 (CYP2B6 mRNA; hepatocyte lot Hu8123, 30 μM): 1.3 fold; Fold change of mRNA expression level CYP3A4 (CYP3A4 mRNA; hepatocyte lot Hu1487, 3 μM): 1.3 fold; Fold change of mRNA expression level CYP3A4 (CYP3A4 mRNA; hepatocyte lot Hu1487, 10 μM): 1.3 fold; Fold change of mRNA expression level CYP3A4 (CYP3A4 mRNA; hepatocyte lot Hu1487, 30 μM): 1.7 fold; Fold change of mRNA expression level CYP3A4 (CYP3A4 mRNA; hepatocyte lot Hu8114, 3 μM): 1.4 fold; Fold change of mRNA expression level CYP3A4 (CYP3A4 mRNA; hepatocyte lot Hu8114, 10 μM): 1.4 fold; Fold change of mRNA expression level CYP3A4 (CYP3A4 mRNA; hepatocyte lot Hu8114, 30 μM): 1.9 fold; Fold change of mRNA expression level CYP3A4 (CYP3A4 mRNA; hepatocyte lot Hu8123, 3 μM): 1.0 fold; Fold change of mRNA expression level CYP3A4 (CYP3A4 mRNA; hepatocyte lot Hu8123, 10 μM): 0.7 fold; Fold change of mRNA expression level CYP3A4 (CYP3A4 mRNA; hepatocyte lot Hu8123, 30 μM): 0.9 fold; induction potential on the CYP mRNA tested [3]: no apparent induction potential; toxicity to the cultured human hepatocytes [4]: did not show detectable toxicity
CC(C)[C@@H]1CC[C@@H](C)C[C@H]1OC(=O)O[C@@H](C)OC(=O)[C@H]1[C@@H]2C[C@H](F)[C@@](N)(C(=O)O)[C@@H]21.O=S(=O)(O)c1ccccc1 [MGS0274 besylate, (1S,2S,3S,5R,6S)‐2‐amino‐3‐fluoro‐6‐({(1S)‐1‐[({[(1R,2S,5R)‐5‐methyl‐2‐(propan‐2‐yl)cyclohexyl]oxy}carbonyl)oxy]ethoxy}carbonyl)bicyclo[3.1.0]hexane‐2‐carboxylic acid monobenzenesulfonate] | < 5.00 | < 5.00 | < 5.00 | < 5.00 | < 5.00 | < 5.00 | no inhibitory potential | 1.0 | 1.0 | 1.4 | 1.1 | 1.0 | 1.1 | 1.1 | 1.2 fold | 1.3 | 1.1 | 1.0 | 1.4 | 0.8 | inhibition at 10 µM ([1]; at 10 μM): < 50%; Fold change of mRNA expression level CYP2B6 (CYP2B6 mRNA; hepatocyte lot Hu8114, 10 μM): 1.0 fold; Fold change of mRNA expression level CYP2B6 (CYP2B6 mRNA; hepatocyte lot Hu8114, 30 μM): 1.5 fold; Fold change of mRNA expression level CYP2B6 (CYP2B6 mRNA; hepatocyte lot Hu8123, 3 μM): 1.7 fold; Fold change of mRNA expression level CYP2B6 (CYP2B6 mRNA; hepatocyte lot Hu8123, 10 μM): 1.8 fold; Fold change of mRNA expression level CYP2B6 (CYP2B6 mRNA; hepatocyte lot Hu8123, 30 μM): 2.4 fold; Fold change of mRNA expression level CYP3A4 (CYP3A4 mRNA; hepatocyte lot Hu1487, 3 μM): 1.4 fold; Fold change of mRNA expression level CYP3A4 (CYP3A4 mRNA; hepatocyte lot Hu1487, 10 μM): 1.5 fold; Fold change of mRNA expression level CYP3A4 (CYP3A4 mRNA; hepatocyte lot Hu1487, 30 μM): 1.8 fold; Fold change of mRNA expression level CYP3A4 (CYP3A4 mRNA; hepatocyte lot Hu8114, 3 μM): 1.1 fold; Fold change of mRNA expression level CYP3A4 (CYP3A4 mRNA; hepatocyte lot Hu8114, 10 μM): 0.9 fold; Fold change of mRNA expression level CYP3A4 (CYP3A4 mRNA; hepatocyte lot Hu8114, 30 μM): 1.1 fold; Fold change of mRNA expression level CYP3A4 (CYP3A4 mRNA; hepatocyte lot Hu8123, 3 μM): 0.8 fold; Fold change of mRNA expression level CYP3A4 (CYP3A4 mRNA; hepatocyte lot Hu8123, 10 μM): 0.8 fold; Fold change of mRNA expression level CYP3A4 (CYP3A4 mRNA; hepatocyte lot Hu8123, 30 μM): 0.9 fold; induction potential on the CYP mRNA tested [3]: no apparent induction potential; toxicity to the cultured human hepatocytes [4]: did not show detectable toxicity
